The record followed here is patent US12559769B2, “Methods and compositions for the activation of tumor cytotoxicity via human gamma-delta t-cells” (priority 2017, dated 2026).

This assay has as its system Vγ9Vδ2 T cells. Kind of assay: Activation of Vγ9Vδ2 T cells (TNF-α, flow cytometry) by PC3 prostate carcinoma cells co-cultured with expanded PBMC. Type of assay: cell-based, human. The procedure:
PC3 cells were transduced with either LV-vector, LV-BTN3A3 (R381H), or LV-BTN3A3 (WT). Three days after transduction, cells were treated with or without 1 μM zoledronic acid. After 24 hours, the transduced PC3 cells were co-cultured with 5×10^5 PBMC cells and IL-2 in a round bottom 96 well plate for 4 hours. The PBMC cells were pre-stimulated with zoledronic acid and IL-2 for 11 days to expand Vγ9Vδ2 T cells. After staining for Vγ9Vδ2 and TNF-α using fluorophore-conjugated anti TCR-Vδ2 and anti-TNF-α antibody, cells were analyzed via flow cytometry. Live cells were gated, and Vδ2+ and TNF-α+ cells were selected on a dot blot. The activated cytotoxic Vγ9Vδ2 T cells appeared in the upper right quadrant of flow cytograms. Without zoledronic acid, the percent of TNF-α expressing Vγ9Vδ2 T cells was 0.37% with LV-vector, 26.7% with BTN3A3 (R381H), and 0.44% with LV-BTN3A3 (WT). With zoledronic acid, the percent of TNF-α expressing Vγ9Vδ2 T cells was 8.91% with LV-vector, 35.2% with BTN3A3 (R381H), and 8.76% with LV-BTN3A3 (WT).
PC3 cells were transduced with LV-vector, LV-BTN3A3 (R381H), or LV-shFDPS-BTN3A3 (R381H). Three days after transduction, cells were treated with or without 1 μM zoledronic acid. After 24 hours, the transduced PC3 cells were co-cultured with 5×10^5 PBMC cells and IL-2 in a round bottom 96 well plate for 4 hours. The PBMC cells were pre-stimulated with zoledronic acid and IL-2 for 11 days to expand Vγ9Vδ2 T cells. After staining for Vγ9Vδ2 and TNF-α using fluorophore-conjugated anti TCR-Vδ2 and anti-TNF-α antibody, cells were analyzed via flow cytometry. Live cells were gated, and Vδ2+ and TNF-α+ cells were selected on a dot blot. The activated cytotoxic Vγ9Vδ2 T cells appeared in the upper right quadrant of flow cytograms. Without zoledronic acid, the percent of TNF-α expressing Vγ9Vδ2 T cells was 0.1% with LV-vector, 21.1% with BTN3A3 (R381H), and 18.2% with the combination of LV-shFDPS-BTN3A3 (R381H). With zoledronic acid, the percent of TNF-α expressing Vγ9Vδ2 T cells was 13.6% with LV-vector, 25.5% with BTN3A3 (R381H), and 39.6% with the combination of LV-shFDPS-BTN3A3 (R381H).
PC3 cells were transduced with LV-shFDPS or LV-shFDPS-IL-2. Three days after transduction, cells were treated with or without 1 μM zoledronic acid. After 24 hours, the transduced PC3 cells were co-cultured with 5×10^5 PBMC cells and with or without IL-2 in a round bottom 96 well plate for 4 hours. The PBMC cells were pre-stimulated with zoledronic acid and IL-2 for 11 days to expand Vγ9Vδ2 T cells. After staining for Vγ9Vδ2 and TNF-α using fluorophore-conjugated anti TCR-Vδ2 and anti-TNF-α antibody, cells were analyzed via flow cytometry. Live cells were gated, and Vδ2+ and TNF-α+ cells were selected on a dot blot. The activated cytotoxic Vγ9Vδ2 T cells appeared in the upper right quadrant of flow cytograms. With only zoledronic acid, the percent of TNF-α expressing Vγ9Vδ2 T cells was 24.6% with LV-shFDPS and 46.8% with LV-shFDPS-IL-2. With zoledronic acid and IL-2, the percent of TNF-α expressing Vγ9Vδ2 T cells was 48.6% with LV-shFDPS and 41% with LV-shFDPS-IL-2.
PC3 cells were transduced with LV-vector, LV-shFDPS, or LV-shFDPS-IL-15. Three days after transduction, cells were treated with or without 1 μM zoledronic acid. After 24 hours, the transduced PC3 cells were co-cultured with 5×10^5 PBMC cells and with or without IL-2 in a round bottom 96 well plate for 4 hours. The PBMC cells were pre-stimulated with zoledronic acid and IL-2 for 11 days to expand Vγ9Vδ2 T cells. After staining for Vγ9Vδ2 and TNF-α using fluorophore-conjugated anti TCR-Vδ2 and anti-TNF-α antibody, cells were analyzed via flow cytometry. Live cells were gated, and Vδ2+ and TNF-α+ cells were selected on a dot blot. The activated cytotoxic Vγ9Vδ2 T cells appeared in the upper right quadrant of flow cytograms. With only zoledronic acid, the percent of TNF-α expressing Vγ9Vδ2 T cells was 10% with LV-vector, 13% with LV-shFDPS, and 14.6% with LV-shFDPS-IL-15. […]

Setting [1] is: Example 25, FIG. 29, LV-FDPS shRNA #4 transduced PC3 cells, drug 1 μM, 24 hours.
Where [2] appears, read: Example 25, FIG. 29, LV-control transduced PC3 cells, 1 μM, 24 hours, untreated 1.73%.

SMILES strings stand for the structures.

Turning to `COC(=O)[C@H](CCSC)NC(=O)c1ccc(NC[C@@H](N)CS)cc1-c1ccccc1` [FT1277], the “percent of TNF-α expressing Vγ9Vδ2 T cells” value reads like this: under setting [1], 2.44%; under setting [2], 1.64%.

For the compound `C=C(CC[C@]12O[C@H](C(=O)O)[C@@](O)(C(=O)O)[C@](C(=O)O)(O1)[C@H](OC(=O)/C=C/[C@@H](C)C[C@@H](C)CC)[C@H]2O)[C@@H](OC(C)=O)[C@H](C)Cc1ccccc1` [zaragozic acid], the “percent of TNF-α expressing Vγ9Vδ2 T cells” value runs as follows: (Example 25, FIG. 29, LV-FDPS shRNA #4 transduced PC3 cells, drug 5 μM, 24 hours) 2.66%; (Example 25, FIG. 29, LV-control transduced PC3 cells, 5 μM, 24 hours, untreated 1.73%) 1.57%.

With `O=P(O)(O)C(O)(Cn1ccnc1)P(=O)(O)O` [zoledronic acid], the “percent of TNF-α expressing Vγ9Vδ2 T cells” value (Example 3, LV-vector (control) transduced PC3 cells, 1 μM zoledronic acid) was 8.91%; the “percent of TNF-α expressing Vγ9Vδ2 T cells” value (Example 5, LV-vector (control) transduced PC3 cells, 1 μM zoledronic acid) came to 13.6%; the “percent of TNF-α expressing Vγ9Vδ2 T cells” value (Example 8, LV-vector (control) transduced PC3 cells, only zoledronic acid (1 μM)) is 10%; the “percent of TNF-α expressing Vγ9Vδ2 T cells” value (Example 8, LV-vector (control) transduced PC3 cells, zoledronic acid (1 μM) and IL-2) is reported as 14.5%; the “percent of TNF-α expressing Vγ9Vδ2 T cells” value (Example 19, LV-control transduced PC3 cells, 1 μM zoledronic acid) is 5.71%; the “percent of TNF-α expressing Vγ9Vδ2 T cells” value (Example 23, LV-control transduced PC3 cells, 1 μM zoledronic acid) is listed as 8.66%. Also, the “percent of TNF-α expressing Vγ9Vδ2 T cells” value by setting is: under setting [1], 50.3%; under setting [2], 2.87%.
